This is an account of results in patent US20230065745A1, “PIPERIDINE-2,6-DIONE DERIVATIVES WHICH BIND TO CEREBLON, AND METHODS OF USE THEREOF” (Captor Therapeutics S.A., priority 2019, published 2023).

Structures are written as SMILES. A value given as a limit tells only on which side of the number the result lay.

Chain of CRBN-DDB1 protein complex (Q96SW2 whole entry): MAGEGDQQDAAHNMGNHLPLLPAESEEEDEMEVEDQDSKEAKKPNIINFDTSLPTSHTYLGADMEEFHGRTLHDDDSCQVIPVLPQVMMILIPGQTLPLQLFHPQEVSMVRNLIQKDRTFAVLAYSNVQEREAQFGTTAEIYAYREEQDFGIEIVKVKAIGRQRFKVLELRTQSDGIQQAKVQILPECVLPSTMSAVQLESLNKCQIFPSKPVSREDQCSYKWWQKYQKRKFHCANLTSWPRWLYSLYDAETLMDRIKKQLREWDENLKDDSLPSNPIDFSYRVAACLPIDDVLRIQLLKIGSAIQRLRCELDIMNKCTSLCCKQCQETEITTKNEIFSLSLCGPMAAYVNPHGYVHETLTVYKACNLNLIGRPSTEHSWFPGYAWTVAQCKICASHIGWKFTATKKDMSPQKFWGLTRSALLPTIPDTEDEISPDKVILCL
Chain of CRBN-DDB1 protein complex (Q16531 whole entry partner): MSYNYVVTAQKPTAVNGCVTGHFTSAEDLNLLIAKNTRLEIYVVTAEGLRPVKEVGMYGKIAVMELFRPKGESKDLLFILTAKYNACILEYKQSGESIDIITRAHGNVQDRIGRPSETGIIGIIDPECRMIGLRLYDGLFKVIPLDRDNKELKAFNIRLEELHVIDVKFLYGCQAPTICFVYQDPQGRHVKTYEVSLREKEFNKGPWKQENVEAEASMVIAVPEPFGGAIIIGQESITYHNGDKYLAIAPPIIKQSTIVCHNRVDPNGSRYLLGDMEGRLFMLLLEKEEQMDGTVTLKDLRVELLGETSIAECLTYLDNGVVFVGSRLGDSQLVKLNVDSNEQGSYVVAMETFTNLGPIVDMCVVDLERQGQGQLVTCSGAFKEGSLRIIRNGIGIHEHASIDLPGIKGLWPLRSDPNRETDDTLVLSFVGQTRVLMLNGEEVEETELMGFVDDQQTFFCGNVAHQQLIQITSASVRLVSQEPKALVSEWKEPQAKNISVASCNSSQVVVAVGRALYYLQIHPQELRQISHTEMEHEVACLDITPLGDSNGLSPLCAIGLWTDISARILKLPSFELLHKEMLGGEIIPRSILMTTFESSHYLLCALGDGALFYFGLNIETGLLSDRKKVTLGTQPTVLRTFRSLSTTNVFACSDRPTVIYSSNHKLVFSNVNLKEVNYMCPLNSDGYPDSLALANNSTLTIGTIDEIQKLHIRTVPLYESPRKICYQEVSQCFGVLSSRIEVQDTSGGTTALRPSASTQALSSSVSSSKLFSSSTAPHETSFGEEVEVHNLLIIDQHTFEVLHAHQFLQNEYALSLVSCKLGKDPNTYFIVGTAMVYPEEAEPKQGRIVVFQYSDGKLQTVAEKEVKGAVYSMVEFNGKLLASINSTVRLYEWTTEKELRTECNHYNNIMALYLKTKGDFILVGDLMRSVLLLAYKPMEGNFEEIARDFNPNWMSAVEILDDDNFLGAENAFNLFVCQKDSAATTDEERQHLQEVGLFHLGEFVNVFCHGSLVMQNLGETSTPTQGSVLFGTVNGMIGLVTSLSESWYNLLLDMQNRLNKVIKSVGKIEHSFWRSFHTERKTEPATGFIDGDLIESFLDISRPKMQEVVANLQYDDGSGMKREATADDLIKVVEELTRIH

One experiment addresses CRBN-DDB1 protein complex (Homo sapiens, UniProt Q96SW2). The experiment is described as follows: Fluorescence Polarization (FP) assay, displacement of Cy5-labelled thalidomide. Conditions: 25 nM CRBN-DDB1, 5 nM Cy5-labelled thalidomide, read-out: CRBN binding Ki. As to the method:
CRBN-DDB1 protein complex was mixed with Cy5-labelled thalidomide and a compound to be tested (the “test compound”). […] The test solution was added to a 384-well assay plate.
The plate was spun-down (1 min, 1000 rpm, 22° C.) and then shaken using a VibroTurbulator for 10 min at room temperature (20-25° C.), with the frequency set to level 3. The assay plate with protein and the tracer was incubated for 60 min at room temperature (20-25° C.) prior to read-out with a plate reader.
The FP experiment was carried out with various concentrations of the test compounds in order to measure Ki values.
For orientation: Fluorescence polarisation rises when a labelled molecule tumbles more slowly, as on binding a larger partner.
The term Ki denotes the equilibrium dissociation constant of an inhibitor or competing ligand from its target. With `CC(C)(C)OC(=O)Nc1sccc1C(=O)NC1CCC(=O)NC1=O` (stereo not shown) [Compound 1, tert-butyl (3-((2,6-dioxopiperidin-3-yl)carbamoyl)thiophen-2-yl)carbamate], the Ki lay within 10 to 50 µM.

On to `CCCCC(=O)Nc1sc(Cl)cc1C(=O)NC1CCC(=O)NC1=O` (stereo not shown) [Compound 3, 5-chloro-N-(2,6-dioxopiperidin-3-yl)-2-pentanamidothiophene-3-carboxamide], for which the Ki was less than 5 µM.

Take `CC(=O)Nc1sccc1C(=O)N(C)C1CCC(=O)NC1=O` (stereo not shown) [Compound 5, N-(2,6-dioxopiperidin-3-yl)-2-acetamido-N-methylthiophene-3-carboxamide]: the Ki was 10 to 50 µM.

Turning to `O=C1CCC(NC(=O)c2cc(Cl)sc2NC(=O)C2CC2)C(=O)N1` (stereo not shown) [Compound 6, 5-chloro-2-cyclopropaneamido-N-(2,6-dioxopiperidin-3-yl)thiophene-3-carboxamide], the Ki was less than 5 µM.

On to `CC(=O)Nc1ccsc1C(=O)NC1CCC(=O)NC1=O` (stereo not shown) [Compound 7, N-(2,6-dioxopiperidin-3-yl)-3-acetamidothiophene-2-carboxamide], for which the Ki is 5 to 10 µM.

Regarding `O=C1CCC(NC(=O)c2csc(=O)[nH]2)C(=O)N1` (stereo not shown) [Compound 15, N-(2,6-dioxopiperidin-3-yl)-2-oxo-2,3-dihydrothiazole-4-carboxamide], the inhibition constant Ki was in the range of 5 to 10 µM.

For `CCOc1sccc1C(=O)NC1CCC(=O)NC1=O` (stereo not shown) [Compound 28, N-(2,6-dioxopiperidin-3-yl)-2-ethoxythiophene-3-carboxamide], the Ki was less than 5 µM.

As to `COc1scc(C)c1C(=O)NC1CCC(=O)NC1=O` (stereo not shown) [Compound 29, N-(2,6-dioxopiperidin-3-yl)-2-methoxy-4-methylthiophene-3-carboxamide], the Ki lay within 5 to 10 µM.

Regarding `COc1sc(C)cc1C(=O)NC1CCC(=O)NC1=O` (stereo not shown) [Compound 30, N-(2,6-dioxopiperidin-3-yl)-2-methoxy-5-methylthiophene-3-carboxamide], the Ki is less than 5 µM.

For the compound `COc1sc(C2CC2)cc1C(=O)NC1CCC(=O)NC1=O` (stereo not shown) [Compound 32, 5-cyclopropyl-N-(2,6-dioxopiperidin-3-yl)-2-methoxythiophene-3-carboxamide], the Ki is less than 5 µM.

As for `COc1sc(-c2ccccc2)cc1C(=O)NC1CCC(=O)NC1=O` (stereo not shown) [Compound 33, N-(2,6-dioxopiperidin-3-yl)-2-methoxy-5-phenylthiophene-3-carboxamide], the Ki was less than 5 µM.

Regarding `COc1sc(Br)cc1C(=O)NC1CCC(=O)NC1=O` (stereo not shown) [Compound 34, 5-bromo-N-(2,6-dioxopiperidin-3-yl)-2methoxythiophene-3-carboxamide], the Ki is less than 5 µM.

As to `COc1sc(C(C)(C)C)cc1C(=O)NC1CCC(=O)NC1=O` (stereo not shown) [Compound 35, 5-(tert-butyl)-N-(2,6-dioxopiperidin-3-yl)-2-methoxythiophene-3-carboxamide], the inhibitory constant (Ki) is less than 5 µM.

With `O=C1CCC(NC(=O)c2ccsc2-n2cccn2)C(=O)N1` (stereo not shown) [Compound 39, N-(2,6-dioxopiperidin-3-yl)-2-(1H-pyrazol-1-yl)thiophene-3-carboxamide], the Ki is 10 to 50 µM.

With `O=C1CCC(NC(=O)c2ccoc2C2CC2)C(=O)N1` (stereo not shown) [Compound 47, 2-cyclopropyl-N-(2,6-dioxopiperidin-3-yl)furan-3-carboxamide], the Ki was 10 to 50 µM.

`CC(C)(C)OC(=O)NCc1ccc(C(=O)NC2CCC(=O)NC2=O)s1` (stereo not shown) [Compound 49, tert-butyl ((5-((2,6-dioxopiperidin-3-yl)carbamoyl)thiophen-2-yl)methyl)carbamate]: the Ki was less than 5 µM.

With `NCc1ccc(C(=O)NC2CCC(=O)NC2=O)s1` (stereo not shown) [Compound 50, 5-(aminomethyl)-N-(2,6-dioxopiperidin-3-yl)thiophene-2-carboxamide], the Ki was in the range of 10 to 50 µM.

Take `CC(C)(C)OC(=O)NCc1csc(C(=O)NC2CCC(=O)NC2=O)c1` (stereo not shown) [Compound 51, tert-butyl ((5-((2,6-dioxopiperidin-3-yl)carbamoyl)thiophen-3-yl)methyl)carbamate]: the Ki was less than 5 µM.

Take `NCc1csc(C(=O)NC2CCC(=O)NC2=O)c1` (stereo not shown) [Compound 52, 4-(aminomethyl)-N-(2,6-dioxopiperidin-3-yl)thiophene-2-carboxamide]: the Ki lay in the range of 10 to 50 µM.

As to `O=C1CCC(NC(=O)c2cc(O)cs2)C(=O)N1` (stereo not shown) [Compound 53, N-(2,6-dioxopiperidin-3-yl)-4-hydroxythiophene-2-carboxamide], the Ki was less than 5 µM.

Regarding `CC(C)(C)OC(=O)NCc1sccc1C(=O)NC1CCC(=O)NC1=O` (stereo not shown) [Compound 63, tert-butyl ((3-((2,6-dioxopiperidin-3-yl)carbamoyl)thiophen-2-yl)methyl)carbamate], the Ki lay within 10 to 50 µM.

`O=C1CCC(NC(=O)c2ccsc2C2CC2)C(=O)N1` (stereo not shown) [Compound 66, 2-cyclopropyl-N-(2,6-dioxopiperidin-3-yl)thiophene-3-carboxamide]: the Ki was in the range of 10 to 50 µM.

On to `CCOc1oc(C)nc1C(=O)NC1CCC(=O)NC1=O` (stereo not shown) [Compound 68, N-(2,6-dioxopiperidin-3-yl)-5-ethoxy-2-methyloxazole-4-carboxamide], for which the Ki was in the range of 10 to 50 µM.

For the compound `CC(C)(C)OC(=O)NCc1nc(C(=O)NC2CCC(=O)NC2=O)cs1` (stereo not shown) [Compound 77, tert-butyl ((4-((2,6-dioxopiperidin-3-yl)carbamoyl)thiazol-2-yl)methyl)carbamate], the Ki lay in the range of 5 to 10 µM.

As to `CNc1scnc1C(=O)NC1CCC(=O)NC1=O` (stereo not shown) [Compound 78, N-(2,6-dioxopiperidin-3-yl)-5-(methylamino)thiazole-4-carboxamide], the Ki fell in the range of 10 to 50 µM.

In the case of `COc1scnc1C(=O)NC1CCC(=O)NC1=O` (stereo not shown) [Compound 79, N-(2,6-dioxopiperidin-3-yl)-5-methoxythiazole-4-carboxamide], the Ki was in the range of 5 to 10 µM.

For `COc1sc(N)nc1C(=O)NC1CCC(=O)NC1=O` (stereo not shown) [Compound 80, 2-amino-N-(2,6-dioxopiperidin-3-yl)-5-methoxythiazole-4-carboxamide], the Ki was less than 5 µM.

Take `O=C1CCC(NC(=O)c2ncsc2C2CC2)C(=O)N1` (stereo not shown) [Compound 82, 5-Cyclopropyl-N-(2,6-dioxopiperidin-3-yl)thiazole-4-carboxamide]: the inhibitory constant (Ki) lay in the range of 10 to 50 µM.

On to `O=C1CCC(NC(=O)c2sc(Br)c3cccnc23)C(=O)N1` (stereo not shown) [Compound 96], for which the Ki is less than 5 µM.

Consider `O=C1CCC(NC(=O)c2c[nH]c3nccc(Cl)c23)C(=O)N1` (stereo not shown) [Compound 97, 4-chloro-N-(2,6-dioxopiperidin-3-yl)-1H-pyrrolo[2,3-b]pyridine-3-carboxamide], for which the Ki was in the range of 5 to 10 µM.

Turning to `Cn1cc(C(=O)NC2CCC(=O)NC2=O)c2cccnc21` (stereo not shown) [Compound 98, N-(2,6-dioxopiperidin-3-yl)-1-methyl-1H-pyrrolo[2,3-b]pyridine-3-carboxamide], the Ki is 10 to 50 µM.

For the compound `O=C1CCC(NC(=O)c2c[nH]c3ncc(Cl)cc23)C(=O)N1` (stereo not shown) [Compound 99, 5-chloro-N-(2,6-dioxopiperidin-3-yl)-1H-pyrrolo[2,3-b]pyridine-3-carboxamide], the Ki was in the range of 5 to 10 µM.

With `Nc1ncc(C(=O)NC2CCC(=O)NC2=O)s1` (stereo not shown) [Compound 112, 2-amino-N-(2,6-dioxopiperidin-3-yl)thiazole-5-carboxamide], the inhibition constant (Ki) was in the range of 5 to 10 µM.

For another experiment, the system named is IKZF1. The experiment is described as follows: IKZF1 degradation assay, H929 cell line (Western blot densitometry). It counts as cell-based. Particulars: 20 μM. As to the method: Cells were seeded on 6- or 12-well plates, and the compounds to be tested were added at the desired concentration range. […] After 6 or 24 h incubation (3TC, 5% CO2), cells were harvested, washed and cell lysates were prepared using RIPA lysis buffer. The amount of protein was determined via BCA assay, and the appropriate quantity was then loaded on the precast gel for the protein separation. After primary and secondary Ab staining, the membranes were washed and signals developed. The densitometry analysis was implemented to obtain the numeric values used later in the protein level evaluation process. […] The treatment with all compounds was carried out for 24 h.
(In general: In western blotting, separated proteins are transferred to a membrane and probed.)
Turning to `CC(C)(C)OC(=O)Nc1sccc1C(=O)NC1CCC(=O)NC1=O` (stereo not shown) [Compound 1, tert-butyl (3-((2,6-dioxopiperidin-3-yl)carbamoyl)thiophen-2-yl)carbamate], the “% of IKZF1 protein reduction, IKZF 1 (24 H, 20 μM)” value (shortened to “% of IKZF1 protein reduction”) is listed as ≤25% (≤25% for 0-25% of IKZF1 protein reduction).

In the case of `CC(=O)N(C)c1sccc1C(=O)NC1CCC(=O)NC1=O` (stereo not shown) [Compound 2, N-(2,6-dioxopiperidin-3-yl)-2-(N-methylacetamido)thiophene-3-carboxamide], the “% of IKZF1 protein reduction” value was ≤25% (≤25% for 0-25% of IKZF1 protein reduction).

For `CCCCC(=O)Nc1sc(Cl)cc1C(=O)NC1CCC(=O)NC1=O` (stereo not shown) [Compound 3, 5-chloro-N-(2,6-dioxopiperidin-3-yl)-2-pentanamidothiophene-3-carboxamide], the “% of IKZF1 protein reduction” value is listed as ≤25% (≤25% for 0-25% of IKZF1 protein reduction).

Regarding `CC(=O)Nc1sccc1C(=O)N(C)C1CCC(=O)NC1=O` (stereo not shown) [Compound 5, N-(2,6-dioxopiperidin-3-yl)-2-acetamido-N-methylthiophene-3-carboxamide], the “% of IKZF1 protein reduction” value is reported as ≤25% (≤25% for 0-25% of IKZF1 protein reduction).

With `O=C1CCC(NC(=O)c2cc(Cl)sc2NC(=O)C2CC2)C(=O)N1` (stereo not shown) [Compound 6, 5-chloro-2-cyclopropaneamido-N-(2,6-dioxopiperidin-3-yl)thiophene-3-carboxamide], the “% of IKZF1 protein reduction” value was ≤25% (≤25% for 0-25% of IKZF1 protein reduction).

Turning to `CC(=O)Nc1ccsc1C(=O)NC1CCC(=O)NC1=O` (stereo not shown) [Compound 7, N-(2,6-dioxopiperidin-3-yl)-3-acetamidothiophene-2-carboxamide], the “% of IKZF1 protein reduction” value is reported as ≤25% (≤25% for 0-25% of IKZF1 protein reduction).

With `O=C1CCC(NC(=O)c2ccsc2-n2cccc2)C(=O)N1` (stereo not shown) [Compound 41, N-(2,6-dioxopiperidin-3-yl)-2-(1H-pyrrol-1-yl)thiophene-3-carboxamide], the “% of IKZF1 protein reduction” value was ≤25% (≤25% for 0-25% of IKZF1 protein reduction).

With `O=C1CCC(NC(=O)c2cc(Cl)sc2NC(=O)c2ccccc2)C(=O)N1` (stereo not shown) [Compound 45, 2-benzamido-5-chloro-N-(2,6-dioxopiperidin-3-yl)thiophene-3-carboxamide], the “% of IKZF1 protein reduction” value is reported as >25% (>25% for 26-74% of IKZF1 protein reduction).

In the case of `O=C1CCC(NC(=O)c2cnc(C(F)(F)F)s2)C(=O)N1` (stereo not shown) [Compound 72, N-(2,6-dioxopiperidin-3-yl)-2-(trifluoromethyl)thiazole-5-carboxamide], the “% of IKZF1 protein reduction” value is recorded as ≤25% (≤25% for 0-25% of IKZF1 protein reduction).

`CC(=O)Nc1sc2c(c1C(=O)NC1CCC(=O)NC1=O)CCCC2` (stereo not shown) [Compound 105, N-(2,6-dioxopiperidin-3-yl)-2-acetamido-4,5,6,7-tetrahydro-1-benzothiophene-3-carboxamide]: the “% of IKZF1 protein reduction” value is given as ≤25% (≤25% for 0-25% of IKZF1 protein reduction).
